Legend:
Type in all cases: cell-based, human
CBX2 = CBX2 knockdown confirmed via qPCR and immunoblots; conditions: shRNA transduced into OVCAR4, PEO1 and OVCAR8 cells; vs shControl
Excerpt: To further elucidate the role of CBX2 in HGSOC, we evaluated the impact of CBX2 modulation in PEO1, OVCAR4, and OVCAR8 HGSOC cell lines. One of the two independent small hairpin RNAs (shRNA) specific for CBX2 or a control (shControl) were transduced into OVCAR4, PEO1, and OVCAR8 cells. CBX2 knockdown was confirmed via quantitative PCR (qPCR) and immunoblots, with approximately 60% knockdown in the presence of shCBX2 #1 and 30% knockdown in the presence of shCBX2 #2 (FIG. 2A Panels C, D; and FIG. 3A Panels B-D). […] OVCAR4 and PEO1 CBX2 knockdown cells were plated in adherent (2D) conditions and for 96 h gLuc activity was measured every 24 h. […] OVCAR4 and PEO1 CBX2 knockdown cells were plated in forced suspension conditions and gLuc activity was monitored every 24 h for 96 h and cell viability was determined for cells grown in forced suspension. […] Spheroid diameter was measured for at least 50 spheroids in each condition and used as a surrogate for cell number. […]
Cell lysis was performed using radioimmunoprecipitation assay (RIPA) buffer (150 mM sodium chloride, Triton X-100, 0.5% sodium deoxycholate, 0.1% SDS [sodium dodecyl sulfate], 50 mM Tris, pH 8.0) supplemented with complete EDTA-free protease inhibitor cocktail (Roche), as well as NaF and NaV. Protein was quantified using bicinchoninic acid (BCA) protein assay (Thermo Fisher Scientific, Waltham, MA) and spectrophotometry. […]

[1] = system: TMEFF1 expression in OVCAR4 cells; assay: TMEFF1 (CBX2 target gene) expression by qPCR; conditions: qPCR after treatment of OVCAR4 cells
Description: Ten candidate inhibitors were evaluated based on their ability to inhibit HGSOC cell viability. Dose response assays of all 10 inhibitors were conducted in OVCAR4, PEO1, and COV504 HGSOC cell lines to determine half inhibitory concentration (IC50) (FIG. 12 Panel A). We explored ability of these compounds to downregulate a CBX2 target gene, transmembrane protein with EGF-like and two follistatine-like domains 1 (TMEFF1) (FIG. 12 Panel B).
RNA was isolated using RNAeasy Plus Mini Kit (Qiagen, Hilden Germany) according to the manufacturer's protocol. NanoDrop spectrophotometry was used to measure concentration of extracted RNA. Luna Universal One-step RT qPCR kit (New England BioLabs, Ipswich, MA) was used on BioRad CFX96 (Bio-Rad, Hercules, CA). HPRT or GAPDH were used as internal control as stated in figure legend.

[2] = system: aldehyde dehydrogenase (ALDH); assay: Aldefluor assay with flow cytometry; conditions: OVCAR4 cells, adherent and suspended, 7 days; negative control
Excerpt: The panels of FIG. 9A and FIG. 9B are as follows. Panel A: CBX2-associated genes were cross-referenced with a gene set for stemness. Percentage indicates overlap of stemness gene set with CBX2-associated genes. Panel B: OVCAR4 cells grown in adherent and suspended settings for 7 days. Aldefluor assay and flow cytometry were utilized to determine the percentage of cells that were positive for aldehyde dehydrogenase (ALDH), a marker of stemness. […] Panel C: As above, OVCAR4 cells grown in adherent and suspended settings for 7 days. Bar graph compares the percentage of cells ALDH positive control (+DEAB) to cells without DEAB (experimental) in adherent and suspended settings. Statistical test=two-sided t-test. F Test p=0.1136. Panel D: OVCAR4 cells with shControl, shCBX2 #1 and #2 cultured in suspension over 7 days. Aldefluor assay and flow cytometry again utilized to determine the percentage of cells ALDH positive. Statistical test=two-sided t-test. F-test p=0.83 Panel E: Utilizing the TCGA (HGSOC, Nature, 2011, n=489) dataset, a scatter plot CBX2 expression was correlated to ALDH3A1 expression. Spearman correlation r=0.2123 and p-value<0.0001. Panel F: RT-qPCR of ALDH3A1 in OVCAR4 cells cultured in adherent and suspension conditions with CBX2 knockdown (shCBX2 #1). Statistical test =ANOVA. […]

| Molecule | CBX2 knockdown (CBX2) | TMEFF1 expression [1] | other results |
| --- | --- | --- | --- |
| shCBX2 #2: CBX2-specific short hairpin RNA, ACGGAAAGGAACAGGAAGCAT (SEQ ID NO:20) (expressed or natural sequence; listed as Homo sapiens) | ~30% | – | – |
| Cc1nc2ccc(CN(C)c3ccc(C(=O)N[C@@H](CCC(=O)O)C(=O)O)s3)cc2c(=O)[nH]1 [raltitrexed] | – | significantly inhibited | – |
| CCN(CC)c1ccc(C=O)cc1 [DEAB, Diethylaminobenzaldehyde] | – | – | ALDH activity [2]: prevented the increase |
| CC(=O)Nc1ccc(OC[C@](C)(O)C(=O)Nc2ccc([N+](=O)[O-])c(C(F)(F)F)c2)cc1 [GTX-007] | – | significantly inhibited | – |
| CCc1c(C(=O)C(N)=O)c2c(OCC(=O)O)cccc2n1Cc1ccccc1 [LY315920] | – | significantly inhibited | – |
| shCBX2 #1: CBX2-specific short hairpin RNA, GCCAAGGAAGCTCACTGCCAT (SEQ ID NO:19) (expressed or natural sequence; listed as Homo sapiens) | approximately 60% | – | – |

— patent US20250199004A1, “METHODS OF EVALUATING TREATMENT OUTCOME IN HIGH GRADE SEROUS OVARIAN CANCER” (THE REGENTS OF THE UNIVERSITY OF COLORADO, A BODY CORPORATE, priority 2018, published 2025)
